Data from publication PMC10035947, “Development of novel anilinoquinazoline-based carboxylic acids as non-classical carbonic anhydrase IX and XII inhibitors” (Journal of Enzyme Inhibition and Medicinal Chemistry, 2023).

How the values were obtained:
CCRF-CEM = assay: NCI SRB assay; format: cell-based, human
K-562 = assay: NCI SRB assay; format: cell-based, human
MOLT-4 = assay: NCI SRB assay; format: cell-based, human
EKVX = assay: NCI SRB assay; format: cell-based, human
HOP-62 = assay: NCI SRB assay; format: cell-based, human
NCI-H226 = assay: NCI SRB assay; format: cell-based, human
NCI-H23 = assay: NCI SRB assay; format: cell-based, human
NCI-H322M = assay: NCI SRB assay; format: cell-based, human
NCI-H460 = assay: NCI SRB assay; format: cell-based, human
HCT-116 = assay: NCI SRB assay; format: cell-based, human
HT29 = assay: NCI SRB assay; format: cell-based, human
KM12 = assay: NCI SRB assay; format: cell-based, human
SF-268 = assay: NCI SRB assay; format: cell-based, human; details: SF-268, 1.00E-5 Molar
SF-295 = assay: NCI SRB assay; format: cell-based, human
SNB-19 = assay: NCI SRB assay; format: cell-based, human
SNB-75 = assay: NCI SRB assay; format: cell-based, human
LOX IMVI = assay: NCI SRB assay; format: cell-based, human
SK-MEL-2 = assay: NCI SRB assay; format: cell-based, human
OVCAR-4 = assay: NCI SRB assay; format: cell-based, human
OVCAR-8 = assay: NCI SRB assay; format: cell-based, human
SK-OV-3 = assay: NCI SRB assay; format: cell-based, human
786-0 = assay: NCI SRB assay; format: cell-based, human
ACHN = assay: NCI SRB assay; format: cell-based, human
SN12C = assay: NCI SRB assay; format: cell-based, human; details: SN12C
TK-10 = assay: NCI SRB assay; format: cell-based, human
MCF7 = assay: NCI SRB assay; format: cell-based, human
BT-549 = assay: NCI SRB assay; format: cell-based, human
T-47D = assay: NCI SRB assay; format: cell-based, human
[1] = test system: 59 human cancer cell lines representing nine tumour subpanels; assay: NCI SRB assay, panel and subpanel summaries; details: all cell lines

For Cc1cccc(-c2nc(Nc3ccccc3C(=O)O)c3ccccc3n2)c1 [6a, 2-((2-(m-Tolyl)quinazolin-4-yl)amino)benzoic acid], the GI% (CCRF-CEM; 10 μM) was 82%, the “Growth Percent” value (CCRF-CEM; 1.00E-5 Molar) was 17.83% and the GI% (K-562; K-562, 10 μM) was 71%. The “Growth Percent” value (K-562; K-562, 1.00E-5 Molar) was 28.68%, the GI% (MOLT-4; MOLT-4, 10 μM) was 65% and the “Growth Percent” value (MOLT-4; MOLT-4, 1.00E-5 Molar) was 34.28%. The GI% (EKVX; 10 μM) was 79%, the “Growth Percent” value (EKVX; 1.00E-5 Molar) was 20.98% and the GI% (HOP-62; HOP-62, 10 μM) was 54%. For the same compound, the “Growth Percent” value (HOP-62; HOP-62, 1.00E-5 Molar) was 46.18%, the GI% (NCI-H226; NCI-H226, 10 μM) was 64% and the “Growth Percent” value (NCI-H226; NCI-H226, 1.00E-5 Molar) was 36.13%. The GI% (NCI-H23; NCI-H23, 10 μM) was 79%, the “Growth Percent” value (NCI-H23; NCI-H23, 1.00E-5 Molar) was 20.79% and the GI% (NCI-H322M; 10 μM) was 52%. For the same compound, the “Growth Percent” value (NCI-H322M; 1.00E-5 Molar) was 48.74%, the GI% (NCI-H460; NCI-H460, 10 μM) was 81% and the “Growth Percent” value (NCI-H460; NCI-H460, 1.00E-5 Molar) was 19.15%. The GI% (HCT-116; HCT-116, 10 μM) was 78%, the “Growth Percent” value (HCT-116; HCT-116, 1.00E-5 Molar) was 22.67% and the GI% (HT29; HT29, 10 μM) was 60%. For the same compound, the “Growth Percent” value (HT29; HT29, 1.00E-5 Molar) was 39.66%, the GI% (KM12; KM12, 10 μM) was 70% and the “Growth Percent” value (KM12; KM12, 1.00E-5 Molar) was 29.97%. For the same compound, the “Growth Percent” value (SF-268) was 37.50%, the GI% (SF-295; SF-295, 10 μM) was 73% and the “Growth Percent” value (SF-295; SF-295, 1.00E-5 Molar) was 27.07%. The GI% (SNB-19; SNB-19, 10 μM) was 79%, the “Growth Percent” value (SNB-19; SNB-19, 1.00E-5 Molar) was 21.25% and the GI% (SNB-75; SNB-75, 10 μM) was 45%. For the same compound, the “Growth Percent” value (SNB-75; SNB-75, 1.00E-5 Molar) was 55.27%, the GI% (LOX IMVI; 10 μM) was 64% and the “Growth Percent” value (LOX IMVI; 1.00E-5 Molar) was 36.42%. The GI% (SK-MEL-2; SK-MEL-2, 10 μM) was 34%, the “Growth Percent” value (SK-MEL-2; SK-MEL-2, 1.00E-5 Molar) was 66.01% and the GI% (OVCAR-4; OVCAR-4, 10 μM) was 58%. The “Growth Percent” value (OVCAR-4; OVCAR-4, 1.00E-5 Molar) was 41.88%, the GI% (OVCAR-8; OVCAR-8, 10 μM) was 40% and the “Growth Percent” value (OVCAR-8; OVCAR-8, 1.00E-5 Molar) was 60.34%. For the same compound, the GI% (SK-OV-3; SK-OV-3, 10 μM) was 24%, the “Growth Percent” value (SK-OV-3; SK-OV-3, 1.00E-5 Molar) was 76.74% and the GI% (786-0; 786-0, 10 μM) was 75%. For the same compound, the “Growth Percent” value (786-0; 786-0, 1.00E-5 Molar) was 25.01%, the GI% (ACHN; 10 μM) was 63% and the “Growth Percent” value (ACHN; 1.00E-5 Molar) was 36.44%. The GI% (SN12C; 10 μM) was 59%, the “Growth Percent” value (SN12C; 1.00E-5 Molar) was 40.74% and the GI% (TK-10; TK-10, 10 μM) was “– (Only GI% higher than 20% are shown)”. The “Growth Percent” value (TK-10; TK-10, 1.00E-5 Molar) was 85.85%, the GI% (MCF7; MCF7, 10 μM) was 76% and the “Growth Percent” value (MCF7; MCF7, 1.00E-5 Molar) was 23.97%. For the same compound, the GI% (BT-549; BT-549, 10 μM) was 100%, the “Growth Percent” value (BT-549; BT-549, 1.00E-5 Molar) was -0.68% and the GI% (T-47D; 10 μM) was 73%. The “Growth Percent” value (T-47D; 1.00E-5 Molar) was 26.79%, the “Mean GI %” value ([1]; 10 μM) was 63% and the “Mean Growth Percent” value ([1]; 1.00E-5 Molar) was 37.30%.
